Paper PMC10830420, “Structures, functions and adaptations of the human LINE-1 ORF2 protein” (Nature, 2023)
Read-outs that look alike come from different tables or passages of the source.

Columns and labels:
ORF2p core [1] = target: T1, ORF2p core (Homo sapiens, UniProt O00370); experiment: Homogeneous time-resolved fluorescence (HTRF) ORF2p RT assay; assay type: biochemical
T1 construct: His6-MBP-3C-ORF2p (238-1061, ORFeus-Hs) in pET41; His6-MBP (3C protease site) (N, cleaved yes); made in house; host or cells: E. coli
Description: (§1) ORF2p core was preincubated with a template:primer containing a single site for the incorporation of a given nucleotide analogue. The primer/template sequence shown in the panel a illustrates the case of single incorporation of 3TC, with a single G for incorporation; the incoming template sequence for entecavir and carbovir has a single C, and for d4T a single A, each at position labeled “N”. Reactions were incubated for one minute at 37 °C with a 100 nM dNTP mixture and increasing concentrations of listed inhibitors. IC50 index, fold = IC50 (drug, µM) ÷ [dNTP] […] Fluorescein-labeled dNTPs (here, uracil-TP) are incorporated by ORF2p into a biotinylated primer, here shown against a poly(A) template. Detection is then achieved using FRET with a terbium cryptate labeled streptavidin, and the time-resolved technique and time-delayed emission from terbium cryptate reduces background from other fluorescent chemicals in the mix. In the presence of ORF2p RT inhibitors (RTIs), base incorporation is stopped and FRET signal is lost. […]
(§2) ORF2p reverse transcriptase activity assays […]
For HTRF RT assays157, 25 nM ORF2p core and 12. 5 nM t em plat e: primer was incubated at 25°C for 60 minutes
with 10 nM of fluorescein- 12- dUTP (Thermo), 1 µM each (dATP,dCTP,dGTP), and test compound in a 15 µL
reaction with buffer containing 50 mM Tris-HCl, 50 mM KCl, 10 mM MgCl2, 10 mM DTT, pH 8.1, and 1% final

[2] = test system: L1 retrotransposition reporter in HeLa cells; experiment: LINE-1 dual luciferase retrotransposition assay in HeLa cells; assay type: cell-based, human; details: for IC50: HeLa cells, stable dual luciferase L1 reporter, normalized to cell viability, n = 3 wells
ORF2p core [3] = target: T1, ORF2p core; experiment: Gel-based L1 RT assay, ORF2p core, inhibition by NRTI triphosphates; assay type: biochemical; details: 100 nM dNTP mixture; for IC50: NTP forms of NRTIs, one minute at 37 °C
Description: as §1, §2
Gel-based RT activity assays consisted of pr e-incubating RTs with annealed DNA/RNA, DNA/DNA, or RNA/RNA 5’- end- radiolabeled or 5’-end-Cy5- o r FAM-labeled template:primer duplex or hybrid duplex and, where indicated, inhibitor in the presence of 0.1- 1 μ M dNTP or NTP mixture, 0.25 mM EDTA, 50 mM NaCl, and 25 mM Tris (pH 8) for 10 min at 37°C. Labeled nucleic acids were purchased from Dharmacon or IDT. Unless otherwise indicated, 15 μL reactions were initiated by the addition of 1.3 mM MgCl2, incubated for 10 min at 37 °C, and then stopped by the addition of 15 μL of formamide/EDTA (25 mM) mixture and incubated at 95 °C for 10 min. 3 μL reaction samples were subjected to denaturing 8 M urea 20% PAGE to resolve products followed by signal quantification (ImageQuant 5.2, GE Healthcare Bio- Sciences) through phosphorimaging (Amersham Typhoon 5, Cytivia). Scanned gel images are […]
minor products; original images are provided in an Extended Data file. […]

[4] = test system: interferon production in THP1 cells; experiment: Interferon reporter assay in THP1 cells (secreted luciferase); assay type: cell-based, human
Description: Culture Collection ( AT CC); THP1-Dual and THP1- Dual KO-TREX1 cells were from InvivoGen. All cell lines were maintained at 37 °C and 5% CO2 and validated and tested for mycoplasma. All plasmids and affinity reagents are described in Supplementary Tables 4-5 , respectively and available from Addgene at https://www.addgene.org/browse/article/28243724/. […]
Interferon reporter assay in THP1 cells
The type I interferon response was evaluated using THP1 -Dual and THP1-Dual KO-TREX1 cells (InvivoGen), which secrete a Lucia luciferase reporter gene under control of an interferon- responsive promoter. THP1-Dual KO-TREX1 cell were generated by stable biallelic knock-out of the TREX1 gene. Cell were treated with a dose titration of test compound in the presence of 1 µM 5- aza-2ʹ-deoxycytidine (decitabine, Sigma, #189825), which de- represses LINE-1121. Type 1 Interferon and cell viability were assessed after five days of treatment. QUANTI-LUC solution containing stabilizer was added to the cell supernatant and luminescence was measured on a p la t e reader, and cells were assessed for cell viability using CellTiter-Glo (Promega, #G9683) according to the manufacturer’s instructions.
LINE-1 dual luciferase retrotransposition assay
To assess the potency of inhibiting LINE-1 retrotransposon, a stable clonal dual luciferase L1 reporter cell line was generated and reported as described130,133 in the HeLa Tet-On 3G cell line (Takara, ). SB100x161 was used to integrate pRT006.2, a vector similar to pYX056 130 , which contains a bi-directional Tet-On promoter expressing both control Renilla luciferase and LINE-1 ORFeus-Hs Firefly luciferase antisense intron (AI) r epor t er 79,162. A single cell clone was selected with the highest doxycycline-induced luciferase signal vs baseline. Cells were mixed with compounds and induced for reporter expression with 500 ng/mL doxycycline (Sigma, #D9891) for 72 hours. Luminescence was measured using the Dual-Glo Luciferase Assay System (Promega, #E2940) following the manufacturer’s instructions, and the ratio of Firefly to Renilla Luciferase activity was used to measure […]
Telomerase activity assay
The human telomerase assay was performed with telomerase in MCF- 7 cell lysates using the Telo TAGGG Telomerase PCR ELISAplus kit (Roche). Test compounds (NTPs) were serially diluted in water, mixed with 0.2 µg of M CF- 7 lysate, and pre- incubated at room temperature for 15 minutes. Then the reaction was carried out for 30 minutes, amplified using PCR, and visualized colorimetrically per t he manufacturer’s instructions.
Cells were lysed in ice cold RIPA buffer containing 1x protease inhibitor tablet (Thermo), centrifuged for 10 minutes, and clarified lysates were quantified by BCA assay. […]

[5] = target: T2, human telomerase RT (TERT) (Homo sapiens, UniProt O14746); experiment: Telomerase activity assay in MCF-7 cell lysate; assay type: biochemical; details: NRTI triphosphates
T2 construct: of human telomerase RT (TERT) by NRTI triphosphates in a biochemical assay in MCF-7 cell lysate; endogenous in cells; host or cells: MCF-7 cell lysate
T2 sequence (O14746 whole entry): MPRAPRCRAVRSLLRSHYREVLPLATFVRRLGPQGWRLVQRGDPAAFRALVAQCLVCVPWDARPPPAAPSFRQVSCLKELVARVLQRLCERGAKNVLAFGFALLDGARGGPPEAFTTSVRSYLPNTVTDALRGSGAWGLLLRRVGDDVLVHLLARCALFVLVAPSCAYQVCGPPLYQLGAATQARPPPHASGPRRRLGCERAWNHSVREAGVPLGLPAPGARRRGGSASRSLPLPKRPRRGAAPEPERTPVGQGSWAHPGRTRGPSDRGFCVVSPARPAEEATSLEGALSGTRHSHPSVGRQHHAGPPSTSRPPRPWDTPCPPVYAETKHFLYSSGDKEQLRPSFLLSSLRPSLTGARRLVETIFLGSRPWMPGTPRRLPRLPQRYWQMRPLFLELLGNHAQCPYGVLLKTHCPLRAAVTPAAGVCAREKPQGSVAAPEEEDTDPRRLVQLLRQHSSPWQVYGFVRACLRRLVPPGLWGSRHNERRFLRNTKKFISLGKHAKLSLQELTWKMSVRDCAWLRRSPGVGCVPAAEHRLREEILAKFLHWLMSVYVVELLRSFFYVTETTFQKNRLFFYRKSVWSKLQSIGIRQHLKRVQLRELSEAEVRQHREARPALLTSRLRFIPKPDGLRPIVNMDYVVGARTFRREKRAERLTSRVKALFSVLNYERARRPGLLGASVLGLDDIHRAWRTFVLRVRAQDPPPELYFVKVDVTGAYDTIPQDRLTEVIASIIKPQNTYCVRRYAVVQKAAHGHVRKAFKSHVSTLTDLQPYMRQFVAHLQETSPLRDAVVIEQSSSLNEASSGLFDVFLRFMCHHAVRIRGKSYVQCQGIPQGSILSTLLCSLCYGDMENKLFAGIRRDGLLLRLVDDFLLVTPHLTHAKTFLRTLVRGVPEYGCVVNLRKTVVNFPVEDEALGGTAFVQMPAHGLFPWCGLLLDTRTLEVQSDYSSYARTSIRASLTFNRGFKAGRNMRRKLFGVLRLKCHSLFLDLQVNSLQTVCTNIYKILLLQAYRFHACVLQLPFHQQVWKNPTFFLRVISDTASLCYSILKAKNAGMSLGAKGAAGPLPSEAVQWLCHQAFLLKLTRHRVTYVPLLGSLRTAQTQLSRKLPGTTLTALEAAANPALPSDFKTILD

[6] = HTRF, NRTIs as triphosphates, n = 3 wells

Q: Which “fold change in ORF2p inhibitory activity compared with ddTTP and d4T” value (ORF2p core [1]) does the source give for `Cc1cn([C@H]2C[C@H](N=[N+]=[N-])[C@@H](CO)O2)c(=O)[nH]c1=O` [AZT, zidovudine] here?
A: greater than 20 fold

Q: And the IC50 (ORF2p core [1]; HTRF, NRTI NTPs)?
A: 0.2 to 0.75 µM

Q: And the IC50 ([2]; read-out: IC50)?
A: 1.8 µM

Q: `Nc1nc2c(ncn2[C@H]2C=C[C@@H](CO)C2)c(=O)[nH]1` [Carbovir, carbovir] was tested. Which “IC50 index, fold = IC50 (drug, µM) ÷ [dNTP] (natural counterpart, 0.1 µM)” value (ORF2p core [3]) did it give?
A: 64 fold

Q: And the IC50 (ORF2p core [3])?
A: 5 to 7 µM

Q: Which IC50 (ORF2p core [1]; [6]) does the source give for `CC(C)Nc1cccnc1N1CCN(C(=O)c2cc3cc(NS(C)(=O)=O)ccc3[nH]2)CC1` [Delavirdine, delavirdine] here?
A: > 30 µM

Q: `O=C1Nc2ccc(Cl)cc2[C@@](C#CC2CC2)(C(F)(F)F)O1` [Efavirenz, efavirenz] was tested. Which IC50 (ORF2p core [1]; [6]) did it give?
A: > 30 µM

Q: Which results are given for `C=C1[C@H](CO)[C@@H](O)C[C@@H]1n1cnc2c(=O)[nH]c(N)nc21` [Entecavir, entecavir]?
A: IC50 index, fold = IC50 (drug, µM) ÷ [dNTP] (natural counterpart, 0.1 µM) (ORF2p core [3]): 5.4 fold; IC50 (ORF2p core [3]): 0.4 to 0.6 µM

Q: How did the IC50 (ORF2p core [1]; [6]) turn out when `Cc1cc(C#N)cc(C)c1Oc1nc(Nc2ccc(C#N)cc2)nc(N)c1Br` [Etravirine, etravirine] was run?
A: > 30 µM

Q: Which IC50 ([2]; Homo sapiens, HeLa) does the source give for `Nc1nc(=O)n([C@@H]2CS[C@H](CO)O2)cc1F` [FTC, emtricitabine] here?
A: 1.1 µM

Q: How did the IC50 (ORF2p core [1]; [6]) turn out when `O=C(O)P(=O)(O)O` [Foscarnet, foscarnet] was run?
A: > 100 µM

Q: What does the source list for `Cc1ccnc2c1NC(=O)c1cccnc1N2C1CC1` [Nevirapine, nevirapine]?
A: inhibition of ORF2p (ORF2p core [1]; HTRF, 1 mM): no inhibition; IC50 (ORF2p core [1]; [6]): > 1000 µM; IC50 ([2]; read-out: IC50): > 30 µM

Q: For `Cc1cn(C2C=CC(COP(=O)(OCOC(=O)OC(C)C)OCOC(=O)OC(C)C)O2)c(=O)[nH]c1=O` (stereo not shown) [POC d4T, d4T bis(isopropoxycarbonyloxymethyl)phosphate], which “baseline and decitabine-induced IFN production” value ([4]; 10 µM, THP1 cells, 1 µM decitabine) is on record?
A: reduced IFN further

Q: What about the “fold more potent than d4T in suppressing interferon secretion” value ([4]; TREX1 knockout THP1 cells, 5 days, 1 µM decitabine) of the same compound?
A: approximately 30 fold

Q: Which IC50 (ORF2p core [1]; [6]) does the source give for `Cc1cc(/C=C/C#N)cc(C)c1Nc1ccnc(Nc2ccc(C#N)cc2)n1` [Rilpivirine, rilpivirine] here?
A: > 30 µM

Q: For `CC(C)OC(=O)[C@H](C)N[P@](=O)(OC[C@H]1O[C@@H](n2ccc(=O)[nH]c2=O)[C@](C)(F)[C@@H]1O)Oc1ccccc1` [Sofosbuvir, sofosbuvir], which “inhibition in cell-based L1 assays” value [2] is on record?
A: no inhibition

Q: And the IC50 ([2]; Homo sapiens, HeLa)?
A: > 100 µM

Q: `C[C@H](Cn1cnc2c(N)ncnc21)OCP(=O)(O)O` [Tenofovir, tenofovir] was tested. Which IC50 ([2]; Homo sapiens, read-out: IC50) did it give?
A: 3.2 µM

Q: `Cc1cn([C@H]2C=C[C@@H](COP(=O)(O)OP(=O)(O)OP(=O)(O)O)O2)c(=O)[nH]c1=O` [d4T-TP] was tested. Which IC50 [5] did it give?
A: 15 µM

Q: What about the IC50 (ORF2p core [1]; HTRF, NRTI NTPs) of the same compound?
A: 0.009 µM

Q: How did the IC50 (ORF2p core [1]; HTRF, NRTI NTPs) turn out when `Cc1cn([C@H]2CC[C@@H](CO)O2)c(=O)[nH]c1=O` [ddT, dideoxythymidine] was run?
A: < 0.01 µM

Q: How did the “interferon (IFN) production” value ([4]; 1 µM, THP1 monocytes) turn out when `Nc1ncn([C@H]2C[C@H](O)[C@@H](CO)O2)c(=O)n1` [decitabine, 5-aza-2ʹ-deoxycytidine] was run?
A: increased
